A word on the bioavailability: it is the share of a dose that reaches the circulation, judged against a reference dose that is usually intravenous. Read a high bioavailability as much systemic uptake. The term half-life denotes the time needed for the level to fall by half in the phase considered. Higher therefore signals slow loss. Usually clearance stands for a measure of how efficiently the substance is removed, as volume per time. The low end stands for inefficient removal, the high end for efficient removal. By efflux ratio is commonly meant the permeability from basolateral to apical divided by that in the opposite direction, in the common usage. As usually defined, the IC50 is the concentration needed to halve the response being measured. Lower therefore signals greater potency. As a reminder, the Ki is the equilibrium dissociation constant of an inhibitor or competing ligand from its target. Read a low Ki as a stronger hold on the target.

Series [1] in a line: Oral bioavailability in dog. The series is classed as ADME, organism-based, Canis lupus familiaris. The settings on record: in vivo.
Series [2] in a line: Oral bioavailability in rat. Format: ADME, organism-based. Conditions: in vivo.
Series [3] is described as follows: Drug uptake in CD-1 mouse cerebral spinal fluid. Conditions: in vivo. Format: ADME, Cerebrospinal fluid.
A short description of series [4]: Half life in human hepatocytes. Format: ADME, cell-based, Hepatocyte.
Series [5] is described as follows: Blood clearance in iv dosed rat. Format: ADME, organism-based.
In series [6] the target is T1, Kynurenine/alpha-aminoadipate aminotransferase, mitochondrial (Homo sapiens, UniProt Q8N5Z0). Description: Ratio of Kinact to Ki for KAT2 (unknown origin).
Target sequence in this assay (Q8N5Z0 30-425 limits assumed): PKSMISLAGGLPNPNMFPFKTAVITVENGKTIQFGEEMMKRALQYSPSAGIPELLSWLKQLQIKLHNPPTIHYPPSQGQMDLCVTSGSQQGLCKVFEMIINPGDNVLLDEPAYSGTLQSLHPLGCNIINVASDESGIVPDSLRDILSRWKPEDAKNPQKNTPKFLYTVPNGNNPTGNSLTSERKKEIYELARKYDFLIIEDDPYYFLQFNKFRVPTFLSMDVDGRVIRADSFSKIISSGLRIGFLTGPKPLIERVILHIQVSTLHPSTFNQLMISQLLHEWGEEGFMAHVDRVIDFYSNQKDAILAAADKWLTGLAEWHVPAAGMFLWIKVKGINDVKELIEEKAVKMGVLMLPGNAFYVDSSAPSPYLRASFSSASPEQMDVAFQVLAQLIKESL
Series [7] in a line: Half life in human liver microsomes. Format: ADME.
The next series concerns Brain. Description: Drug uptake in CD-1 mouse brain. Format: ADME, tissue-based. Conditions: in vivo.
The next series has as its system P-gp. Description: Efflux ratio in MDCK cells overexpressing Pgp. Conditions: dog, MDCK-MDR1. The series is classed as ADME, cell-based, Canis lupus familiaris.
The nature of series [8]: Blood clearance in iv dosed dog. The series is classed as ADME, organism-based, Canis lupus familiaris.
Series [9] can be described thus: Drug degradation assessed as metabolite formation by LC-MS/MS analysis. The series is classed as physicochemical.
Series [10] deals with T1, Kynurenine/alpha-aminoadipate aminotransferase, mitochondrial. Description: Inhibition of KAT2 (unknown origin).

Consider `N[C@H]1Cc2ccccc2N(O)C1=O`, for which the results for the bioavailability in series [1] and in [2] were 18.5% and 10.8%, respectively.

Take `COc1cccc(Oc2ccc3c(c2)CC(N)c2n[nH]c(=O)n2-3)c1` (stereo not given): the Drug uptake entry (in series [3]; in the series with Brain) was “Active” each time. Moreover, the figures for the half-life in series [4] and in series [7] were 1.9 h and more than 1.73 h, respectively. Besides, the bioavailability in series [1] was found to be 100%; in [2], 40%. Further, the clearance in series [5] is 78.4 mL/min/kg; in series [8], 4.5 mL/min/kg. The Ratio in series [6] was 5060 M⁻¹ s⁻¹. Further, the efflux ratio in the series on P-gp stood at 1.51. Moreover, the Retention_time in [9] stood at 31.8 min. Also, the midpoint of inhibition in [10], the IC50, lay at 65 nM. In addition, the Ki in series [10] came to 5.1 nM. The compound also returned a Kinact in [10] of 0.0155 min⁻¹.

In the case of `COc1cccc(Oc2ccc3c(c2)CC(N)c2nncn2-3)c1` (stereo not given), the Ratio in series [6] worked out at 2920 M⁻¹ s⁻¹. For the same compound, in series [10], the IC50 is 201 nM, the Ki was 81.5 nM and the Kinact was determined as 0.0141 min⁻¹.

Source of the values: ChEMBL document CHEMBL3217643, “Discovery of hydroxamate bioisosteres as KAT II inhibitors with improved oral bioavailability and pharmacokinetics” (Medchemcomm, 2013).
